pEC50: −log10 of the molar value. Like-named read-outs stand apart in the source and are kept apart here.
Tested on: HCV 1b genotype
Assay: HCV replicon assay (HCV-neo replicon cells)
Format: cell-based
Details: Hepatitis C virus, HCV 1b genotype replicon
Protocol: An HCV Replion assay was utilized in the present disclosure, and was prepared, conducted and validated as described in commonly owned PCT/US2006/022197 and in O'Boyle et. al. Antimicrot Agents Chemother. 2005 April; 49(4):1346-53.
HCV-neo replicon cells were used to test the currently described compound series as well as cells resistant to compound A containing mutations in NS5A (described in application PCT/US2006/022197). The compounds tested were determined to have more than 10-fold less inhibitory activity on cells containing the mutation than wild-type cells indicating a related mechanism of action between the two compound series. Thus, the compounds of the present disclosure can be effective to inhibit the function of the HCV NS5A protein and are understood to be as effective in combinations as previously described in application PCT/US2006/022197 and commonly owned WO 04/014852. Further, the compounds of the present disclosure can be effective against the HCV 1b genotype. It should also be understood that the compounds of the present disclosure can inhibit multiple genotypes of HCV. […] In one embodiment compounds of the present disclosure are active against the 1a, 1b, 2a, 2b, 3a, 4a, and 5a genotypes. Activity ranges are as follows: A=501 nM-1 μM; B 1-500 nM; C=100-999 pM.

SMILES	pEC50 (activity range class)	pEC50 (read-out: EC50 Range/Value)
CC(C)(C)OC(=O)N1CCC[C@H]1c1ncc(-c2ccc(-c3ccc4ncnc(Nc5ccc(N6CCOCC6)cc5)c4c3)cc2)[nH]1 [Example 1 step e]	6.30 to 9.00	–
c1nc(Nc2ccc(N3CCOCC3)cc2)c2cc(-c3ccc(-c4cnc([C@@H]5CCCN5)[nH]4)cc3)ccc2n1 [Example 1 step f]	–	5.82
COC(=O)N[C@H](C(=O)N1CCC[C@H]1c1ncc(-c2ccc(-c3ccc4ncnc(Nc5ccc(N6CCOCC6)cc5)c4c3)cc2)[nH]1)C(C)C [Example 1]	6.30 to 9.00	–
CC(=O)N1CCC[C@H]1c1ncc(-c2ccc(-c3ccc4ncnc(Nc5ccc(N6CCOCC6)cc5)c4c3)cc2)[nH]1 [Example 6]	6.00 to 6.30	–

Source: patent US8093243B2, “Hepatitis C virus inhibitors” (Bristol-Myers Squibb Company, priority 2008, dated 2012)
